The record followed here is US8257755B2, “Metabolic syndrome-improving agent and medicine, supplement, functional food and food additive containing the same” (ARKRAY, Inc., priority 2005, dated 2012).

This assay has as its system HepG2 cells (human hepatic cells). Put plainly: VLDL secretion inhibition experiment in HepG2 cells (apoB100 ELISA). The assay is classed as cell-based. The settings on record: 30 hours, measurement group/control group, DMSO control = 100, average ± standard error. Here is the method:
A sandwich ELISA that recognized human apoB100 in the VLDL as an antigen was used. First, 100 μL of Moab×LDL Apolipoprotein B (ApoB) (manufactured under MONOSAN®) was dispensed in each well of ELISA PLATE, and the plate was sealed with a sterile seal and then allowed to stand still at 4° C. overnight. In the following, all the dispensing mentioned is for a single well. On the next day, 200 μL of Zepto Block (trade name, manufactured by ZeptoMetrix Corporation) was dispensed, and then the above-noted plate was sealed and allowed to stand still for 2 hours at room temperature for blocking. Subsequently, 100 μL of the medium and the VLDL standard solution were dispensed, and then the plate was sealed and allowed to stand still for 1 hour at room temperature. Washing with 200 μL of PBST and absorption using an aspirator were carried out five times in total. Then, 100 μL of Affinity Purified Anti-Apolipoprotein B (manufactured by Rockland Immunochemicals, Inc.) that had been diluted with PBS by 1000 times was dispensed and allowed to stand still for 1 hour at room temperature. After washing similarly to the above, 100 μL of Donkey Anti-goat IgG HRP (manufactured by Promega Corporation) that had been diluted with PBS by 5000 times was dispensed and allowed to stand still for 1 hour at room temperature. […] 100 μL of 1M phosphoric acid solution was added to the above-noted mixture solution, and the absorbance at 450 nm was measured using wallac ARVOsx (trade name, PerkinElmer Life Sciences, PerkinElmer, Inc.). […]
HepG2 was cultured to 80% to 90% confluence in a 100 mm/Collagen-Coated Dish (trade name, manufactured by Iwaki Glass Works, Co.). […] Using this collected medium, the number of living cells were counted, and the Western blotting and the ELISA measurement were carried out similarly to the above. From the result of the ELISA, the ratio of the VLDL secretion amount between the measurement group and the non-treated control group (measurement group/control group) was calculated for each sample.

For the compound `CC(C)=CCC/C(C)=C/COc1c2ccoc2cc2oc(=O)ccc12` [Bergamottin, bergamottin], the “VLDL secretion ratio (%)” value by setting is: (10 μM) 63.4 ± 10.94%; (20 μM) 65.5 ± 13.21%; (50 μM) 45.9 ± 6.29%.
